Assay results from the supplement of paper PMC13380429.

Legend:
Conditions in all cases: 72 h
[1] = test system: HepG2; test: relative viability EC50 (midpoint between 100% and the lowest measured viability); higher = less toxic
[2] = test system: U2OS; test: as above
[3] = test system: Calu-3; test: as above
[4] = test system: Vero E6; test: as above
[5] = test system: Caco-2; test: as above
[6] = test system: HepG2; test: drug sensitivity score (DSS) for viability; higher = more toxic; extreme values may be limits of the assay
[7] = test system: U2OS; test: as above
[8] = test system: Calu-3; test: as above
[9] = test system: Vero E6; test: as above
[10] = test system: Caco-2; test: as above
[11] = test system: HepG2; test: cell viability relative to DMSO; higher = less toxic
[12] = test system: U2OS; test: as above
[13] = test system: Calu-3; test: as above
[14] = test system: Vero E6; test: as above
[15] = test system: Caco-2; test: as above

Structure (SMILES) | relative viability EC50 [1] | relative viability EC50 [2] | relative viability EC50 [3] | relative viability EC50 [4] | relative viability EC50 [5] | drug sensitivity score [6] | drug sensitivity score [7] | drug sensitivity score [8] | drug sensitivity score [9] | drug sensitivity score [10] | cell viability ([11]; 1 nM) | cell viability ([11]; 10 nM) | cell viability ([11]; 100 nM) | cell viability ([11]; 1000 nM) | cell viability ([11]; 10000 nM) | cell viability ([12]; 1 nM) | cell viability ([12]; 10 nM) | cell viability ([12]; 100 nM) | cell viability ([12]; 1000 nM) | cell viability ([12]; 10000 nM) | cell viability ([13]; 1 nM) | cell viability ([13]; 10 nM) | cell viability ([13]; 100 nM) | cell viability ([13]; 1000 nM) | cell viability ([13]; 10000 nM) | cell viability ([14]; 1 nM) | cell viability ([14]; 10 nM) | cell viability ([14]; 100 nM) | cell viability ([14]; 1000 nM) | cell viability ([14]; 10000 nM) | cell viability ([15]; 1 nM) | cell viability ([15]; 10 nM) | cell viability ([15]; 100 nM) | cell viability ([15]; 1000 nM) | cell viability ([15]; 10000 nM)
O=C(O)CNC(=O)c1ccccc1I [2-iodohippuric-acid] | > 10 µM | > 10 µM | > 10 µM | > 10 µM | > 10 µM | 0 | 0 | 0 | 0 | 0 | 101% | 100% | 97.3% | 101% | 91.3% | 100% | 97.6% | 97.8% | 96.7% | 102% | 101% | 106% | 91.7% | 104% | 91.7% | 109% | 107% | 99.1% | 102% | 97.8% | 103% | 103% | 93.1% | 96.4% | 105%
Nc1ccc(C(=O)O)cc1 [potassium-p-aminobenzoate] | > 10 µM | > 10 µM | > 10 µM | > 10 µM | > 10 µM | 0 | 0 | 0 | 0 | 0 | 102% | 93.6% | 109% | 112% | 103% | 96.2% | 101% | 94.4% | 103% | 94.9% | 107% | 97.1% | 99% | 105% | 103% | 105% | 105% | 104% | 97.1% | 100% | 95.6% | 97.1% | 95.1% | 102% | 102%
CCN(CC)C(=O)N1CCN(C)CC1 [diethylcarbamazine] | > 10 µM | > 10 µM | > 10 µM | > 10 µM | > 10 µM | 0 | 0 | 0 | 0 | 0 | 88.1% | 100% | 105% | 101% | 107% | 103% | 97.8% | 102% | 91.4% | 98.1% | 102% | 91.4% | 103% | 103% | 102% | 103% | 97.5% | 102% | 103% | 99.3% | 98.2% | 95.4% | 97.2% | 88.5% | 99.9%
O=C1NCC2(CCN(CCc3ccccc3)CC2)O1 [fenspiride] | > 10 µM | > 10 µM | > 10 µM | > 10 µM | > 10 µM | 0 | 0 | 0 | 0 | 0 | 96.7% | 107% | 100% | 112% | 103% | 105% | 97.7% | 101% | 99.2% | 108% | 96.6% | 92.5% | 85% | 92.3% | 98.9% | 94.9% | 98.3% | 97.9% | 103% | 103% | 99% | 103% | 91.2% | 101% | 104%
Cc1c(CC(C)(C)C(=O)O)n(Cc2ccc(Cl)cc2)c2ccc(F)cc12 | > 10 µM | > 10 µM | > 10 µM | > 10 µM | > 10 µM | 0 | 0 | 0 | 0 | 0 | 97.2% | 109% | 93.7% | 112% | 110% | 98.7% | 99.4% | 103% | 96.4% | 99.7% | 104% | 102% | 96.1% | 95.9% | 88% | 98.3% | 97.5% | 95.2% | 101% | 108% | 91.9% | 106% | 98.5% | 97.6% | 99%
O=c1[nH]cnc2nc[nH]c12 [hypoxanthine] | > 10 µM | > 10 µM | > 10 µM | > 10 µM | > 10 µM | 0 | 0 | 0 | 0 | 0 | 100% | 102% | 97.7% | 95.5% | 94% | 98% | 97.8% | 102% | 102% | 113% | 98.1% | 90.3% | 102% | 95.4% | 102% | 105% | 105% | 102% | 104% | 96.5% | 101% | 87% | 102% | 103% | 112%
CC[C@]1(O)C[C@@H]2CN(CCc3c([nH]c4ccccc34)[C@@](C(=O)OC)(c3cc4c(cc3OC)N(C)[C@H]3[C@@](O)(C(=O)OC)[C@H](OC(C)=O)[C@]5(CC)C=CCN6CC[C@]43[C@@H]65)C2)C1 [Vinblastine (sulfate)] | 0.0053 µM | 0.0071 µM | 0.0105 µM | 0.0688 µM | 0.0105 µM | 27.8 | 31.8 | 22 | 20.6 | 24.1 | 99.3% | 43.9% | 34.7% | 32.5% | 34.8% | 96.1% | 48.1% | 24.9% | 19.6% | 16.8% | 87.5% | 64.9% | 50.5% | 41.6% | 34.3% | 100% | 91.3% | 48.8% | 30.1% | 18.1% | 90.3% | 56.8% | 44.4% | 43.9% | 27.7%
CCCc1ccc(C(=O)O)cc1 [4-propylbenzoic-acid] | > 10 µM | > 10 µM | > 10 µM | > 10 µM | > 10 µM | 0 | 0 | 0 | 0 | 0 | 106% | 106% | 93.7% | 104% | 98.3% | 98.5% | 94.9% | 99.8% | 98.9% | 102% | 106% | 106% | 101% | 96.4% | 97.2% | 93.2% | 97.4% | 91.9% | 92.2% | 103% | 96.6% | 96.4% | 105% | 89.7% | 106%
Cc1cc(C(=O)Nc2cccc(C(=O)Nc3cccc(C(F)(F)F)c3)c2)on1 | > 10 µM | > 10 µM | > 10 µM | > 10 µM | > 10 µM | 1.5 | 0 | 0 | 0 | 0 | 103% | 92.3% | 109% | 92.9% | 79.1% | 99% | 99.3% | 94.8% | 104% | 104% | 93.7% | 99.8% | 99.7% | 102% | 99.8% | 100% | 99.4% | 96.7% | 97.3% | 103% | 96.2% | 96.6% | 89.5% | 101% | 105%
CC[C@H](C)[C@H]1O[C@]2(CC[C@@H]1C)C[C@@H]1C[C@@H](C/C=C(\C)[C@@H](O[C@H]3C[C@H](OC)[C@@H](O[C@H]4C[C@H](OC)[C@@H](O)[C@H](C)O4)[C@H](C)O3)[C@@H](C)/C=C/C=C3\CO[C@@H]4[C@H](O)C(C)=C[C@@H](C(=O)O1)[C@]34O)O2 [ivermectin] | > 10 µM | > 10 µM | > 10 µM | > 10 µM | > 10 µM | 0.1 | 0 | 0 | 0 | 0 | 96.2% | 98.5% | 108% | 107% | 85% | 104% | 95.1% | 99.4% | 96.1% | 93.9% | 101% | 107% | 88.1% | 97.1% | 93.6% | 107% | 103% | 106% | 103% | 87.8% | 94.7% | 90.3% | 94.2% | 95.8% | 108%
O=S(=O)(Cc1ccccc1)Nc1ccc(-c2ccc3c(cnn3-c3ccc(F)cc3)c2)c(C(F)(F)F)c1 [GSK9027] | > 10 µM | > 10 µM | > 10 µM | > 10 µM | > 10 µM | 0.1 | 0 | 0 | 0 | 0.4 | 96% | 94.4% | 95.3% | 104% | 86.3% | 94.7% | 93.7% | 100% | 95.9% | 93.7% | 103% | 105% | 97.6% | 92.2% | 97.1% | 96% | 94.2% | 91.1% | 95.2% | 110% | 90.8% | 98.6% | 99.7% | 97.7% | 85.5%
N[C@@H](Cc1ccc(O)cc1)C(=O)NCC(=O)NCC(=O)O [IMREG-1] | > 10 µM | > 10 µM | > 10 µM | > 10 µM | > 10 µM | 0.1 | 0 | 0 | 0 | 0 | 101% | 102% | 92% | 103% | 86.8% | 104% | 95% | 97.6% | 93.5% | 102% | 102% | 99.5% | 101% | 98.5% | 108% | 90.7% | 96.8% | 92.6% | 97.9% | 89.8% | 98.2% | 91.6% | 103% | 91.3% | 97.1%
OCCN(CCO)c1nc(N2CCCCC2)c2nc(N(CCO)CCO)nc(N3CCCCC3)c2n1 [dipyridamole] | > 10 µM | > 10 µM | > 10 µM | > 10 µM | > 10 µM | 0 | 0 | 0 | 0 | 0.3 | 94.2% | 101% | 96.6% | 100% | 96.7% | 103% | 99.2% | 101% | 102% | 99.8% | 99.1% | 103% | 112% | 96.4% | 104% | 104% | 90.1% | 108% | 95% | 95.3% | 114% | 98.9% | 102% | 96.2% | 87.1%
C=CCc1cc(OC)c(O)c(C(=O)NCCO)c1 [alibendol] | > 10 µM | > 10 µM | > 10 µM | > 10 µM | > 10 µM | 0 | 0 | 0 | 0 | 0 | 92.4% | 98.7% | 101% | 92.5% | 102% | 102% | 105% | 95% | 104% | 99.6% | 93.6% | 99.3% | 87.2% | 99.7% | 101% | 105% | 99.2% | 99.6% | 105% | 97.4% | 90.7% | 112% | 90.5% | 93% | 99.9%
